Earlier results in US20070042999A1, “Phosphate derivatives of pharmaceutical products” (priority 2003, published 2007).

How the values were obtained:
[1] = in vivo
[2] = administered orally

Row | SMILES | bioavailability [1] | fraction of the administered dose available in the active form [2]
1 | N[C@@H](Cc1cc(I)c(Oc2cc(I)c(O)c(I)c2)c(I)c1)C(=O)O [Thyroxine, thyroxine] | 50-80% | 
2 | C[C@]12CC[C@H]3[C@@H](CCC4=CC(=O)CC[C@@]43C)[C@@H]1CC[C@@H]2O [testosterone] |  | less than one sixth
